Results published in ChEMBL document CHEMBL1201862, “PubChem BioAssay data set” (2004).
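Protocol summary: plate cells (96-well), add compound at 5 concentrations, incubate 48 h, interpolate endpoints linearly. At the GI50, growth is halved.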 Activity calls are given as the source filed them. Cut-off read from the data, not from the text of the source: active = GI50 up to about 1.1 µM and inactive = higher.

Tests used:
Test in all cases: NCI tumour cell line growth inhibition, 48 h
[1] = tested on: SW-620
[2] = tested on: NCI-H460
[3] = tested on: SF-539
[4] = tested on: UO-31
[5] = tested on: UACC-62
[6] = tested on: DLD-1
[7] = tested on: COLO 205
[8] = tested on: SN12C
[9] = tested on: U-251
[10] = tested on: KM12
[11] = tested on: DMS-114
[12] = tested on: NCI-H522
[13] = tested on: SK-MEL-2
[14] = tested on: ACHN
[15] = tested on: MOLT-4
[16] = tested on: NCI-H226
[17] = tested on: SK-MEL-5
[18] = tested on: Malme-3M
[19] = tested on: HCT-116
[20] = tested on: OVCAR-5

Measured: GI50

CC1(C)O[C@@H](C[C@]2(C#N)C[C@H](CCl)OC(C)(C)O2)C[C@@H](C#N)O1
inactive: [1] > 100 µM | [2] > 100 µM | [3] > 100 µM | [4] > 100 µM | [5] > 100 µM | [6] > 100 µM | [7] > 100 µM | [8] > 100 µM | [9] > 100 µM | [10] > 100 µM | [11] > 100 µM | [12] > 100 µM | [13] > 100 µM | [14] > 100 µM | [15] > 100 µM | [16] > 100 µM | [17] > 100 µM | [18] > 100 µM | [19] > 100 µM | [20] > 100 µM

COC1=C2CC(C)CC(OC)C(O)C(C)/C=C(\C)C(OC(N)=O)C(OC)/C=C\C=C(/C)C(=O)NC(=C(/C=N/C(C)(C)C)C1=O)C2=O (configuration not stated)
active: [11] 0.466 µM | [12] 0.279 µM
inactive: [1] 3.73 µM | [2] 2.44 µM | [3] 1.66 µM | [4] 8.81 µM | [5] 5.38 µM | [6] 6.05 µM | [7] 1.31 µM | [8] 2.04 µM | [9] 1.43 µM | [10] 4.62 µM | [13] 4.85 µM | [15] 3.44 µM | [16] 1.75 µM | [17] 2.79 µM | [18] 1.89 µM | [19] 3.69 µM | [20] 37.3 µM

C=C1C[C@@H]2C[C@@H](C)CC(O)[C@]2(CCCN)C1O (some centres not stated)
inactive: [1] > 100 µM | [2] > 100 µM | [3] > 100 µM | [4] > 100 µM | [5] > 100 µM | [6] > 100 µM | [7] > 100 µM | [8] > 100 µM | [9] > 100 µM | [10] > 100 µM | [11] > 100 µM | [12] > 100 µM | [13] > 100 µM | [14] > 100 µM | [15] > 100 µM | [16] > 100 µM | [17] > 100 µM | [18] > 100 µM | [19] > 100 µM | [20] > 100 µM

COc1cc(O)c2c(c1)C(=O)c1cc(C)cc(O)c1C2=O [PHYSCION]
inactive: [1] > 100 µM | [2] > 100 µM | [3] > 100 µM | [4] > 100 µM | [5] > 100 µM | [6] > 100 µM | [7] > 100 µM | [8] > 100 µM | [9] > 100 µM | [10] > 100 µM | [11] > 100 µM | [12] 78.5 µM | [13] > 100 µM | [14] > 100 µM | [15] > 100 µM | [16] > 100 µM | [17] > 100 µM | [18] > 100 µM | [19] > 100 µM | [20] > 100 µM

CN1CCN(P2(=S)Oc3ccc4ccccc4c3-c3c(ccc4ccccc34)O2)CC1
inactive: [1] 39 µM | [2] 19.5 µM | [3] 21.5 µM | [4] 18.4 µM | [5] 34.5 µM | [6] 34.6 µM | [7] 16.5 µM | [8] 33.5 µM | [9] 32.7 µM | [10] 21.6 µM | [11] 29.6 µM | [12] 24.2 µM | [13] 18.8 µM | [15] 15.1 µM | [16] 26.2 µM | [17] 22.2 µM | [18] 21.4 µM | [19] 32.7 µM | [20] 54.7 µM

C/C(=N\NS(=O)(=O)c1ccccc1)c1ccccc1
inactive: [1] > 100 µM | [2] > 100 µM | [3] > 100 µM | [4] > 100 µM | [5] > 100 µM | [6] > 100 µM | [7] > 100 µM | [8] > 100 µM | [9] > 100 µM | [10] > 100 µM | [11] > 100 µM | [12] > 100 µM | [13] > 100 µM | [15] > 100 µM | [16] > 80.4 µM | [17] > 100 µM | [18] > 100 µM | [19] > 100 µM | [20] > 100 µM
